Measured values as given in patent publication US8524729B2, “Cinnamoyl derivatives and use thereof” (Sumitomo Chemical Company, Limited, priority 2003, dated 2013).

Test: Inhibition of the ability of TGF-β to promote transcription of a Type I collagen gene, COL-Luc luciferase reporter in normal human fetal skin fibroblasts
Assay type: cell-based
Settings: final concentration 1 μM; TGF-β added after one hour; 40 hours; normal human fetal skin fibroblast transfected with COL-Luc and pCMV-β-gal; read-out: Inhibition percentage
Procedure: 1×10^8 cells of a normal human fetal skin fibroblast (Clontech, catalogue No. CC-2509) were cultured at 37° C. overnight under 5% CO2 atmosphere. After the cultured cells were washed with a sodium phosphate buffer (hereinafter, referred to as PBS) twice, 3 ml of PBS was added thereto and the cells were scraped away the wall of a vessel using a cell scraper (Nalgen, catalogue No. 179693). The scraped cells were collected by centrifugation (1,500 rpm, 4° C., 15 min), and these were suspended in 20 ml of PBS and centrifuged again. To the resulting precipitates were added 11 ml of Solution 2 and 4.8 μl of pronase of DNA Extraction Kit (Stratagene, catalogue No. 200600). After shaken at 60° C. for 1 hour, the resulting mixture was allowed to stand in ice for 10 minutes. Then, 4 ml of Solution 3 of the kit was added to the mixture. After mixed, the mixture was allowed to stand in ice for 5 minutes and then centrifuged (3,000 rpm, 4° C., 15 min) to recover a supernatant. To the recovered supernatant was added 2 μl of RNase per 1 ml of the supernatant and the mixture was allowed to stand at 37° C. for 15 minutes. To the mixture was added 2-fold volume of ethanol. After mixed, a white thread-like substance (genomic DNA) appeared and the substance was recovered. The recovered genomic DNA was washed with 70% ethanol and then air-dried. The air-dried genomic DNA was dissolved in 500 μl of 10 mM Tris-HCl, 1 mM EDTA (pH 8.0) (hereinafter, referred to as TE).
The resulting genomic DNA solution (the amount equivalent to 1 μg of genomic DNA), each 1 μl ([…]) of an oligonucleotide consisting of the nucleotide sequence represented by SEQ ID No:1 and an oligonucleotide consisting of the nucleotide sequence represented by SEQ ID No: 2, 29 μL of distilled water, 5 μl of the buffer attached to TaKaRa LA Taq (TAKARA SHUZO, catalogue No. RR002A), 5 μL of a Mg^2+ solution, 5 μL of a dNTP mixture and 0.5 μl of TaKaRa LA Taq (TAKARA SHUZO, catalogue No. RR002A) were mixed. After the resulting mixed solution was incubated at 94° C. for 5 minutes, the mixed solution was subjected to 30 cycles, in which one cycle consists of incubation at 94° C. for 1 minute, at 60° C. for 1 minute and then at 72° C. for 1 minute. The mixed solution was electrophoresed on a 2% agarose gel to recover about 0.5 kb of a DNA. The recovered DNA was treated with phenol/chloroform and then precipitated with ethanol to recover the DNA. The resulting DNA was dissolved in ultrapure water. To this solution were added 2.5 μl of NheI and 2.5 μl of HindIII, and then incubated at 37° C. for 3 hours. Then, the solution was electrophoresed on a 2% agarose gel to recover […] of a DNA. The recovered DNA was precipitated with ethanol to recover again the DNA (hereinafter, referred to as the collagen promoter DNA). […]

| Structure (SMILES) | inhibition at 1 µM [%] |
| --- | --- |
| O=C(C=Cc1ccc(OC(F)(F)F)c(Cl)c1)c1c(O)c2ccccc2[nH]c1=O [Compound No. (3c-32), 4-hydroxy-3-[3-[3-chloro-4-(trifluoromethoxy)phenyl]-1-oxo-2-propenyl]-2(1H)-quinolinone] | ≥ 70 |
| COC1=C(C(=O)C=Cc2ccc(OC(F)(F)F)c(Cl)c2)COC(C)=C1 [Compound No. (2a-17), 4-methoxy-3-[3-[3-chloro-4-(trifluoromethoxy)phenyl]-1-oxo-2-propenyl]-6-methyl-2H-pyran] | ≥ 70 |
| Cc1cc(O)c(C(=O)C=Cc2ccc(OC(F)(F)F)c(Cl)c2)c(=O)[nH]1 [Compound No. (3a-32), 4-hydroxy-3-[3-[3-chloro-4-(trifluoromethoxy)phenyl]-1-oxo-2-propenyl]-6-methyl-2(1H)-pyridinone] | ≥ 70 |
| COc1c(C(=O)C=Cc2ccc(OC(F)(F)F)c(Cl)c2)c(=O)oc2ccccc12 [Compound No. (2c-17), 4-methoxy-3-[3-[3-chloro-4-(trifluoromethoxy)phenyl]-1-oxo-2-propenyl]-2H-1-benzopyran-2-one] | ≥ 70 |
